The text below walks through data of patent publication US20170354650A1, “QUINOLINE DERIVATIVES FOR INHIBITING HISTONE METHYLTRANSFERASES AND USE THEREOF” (KOREA INSTITUTE OF SCIENCE AND TECHNOLOGY, priority 2016, published 2017).

One test deals with ESET/SETDB1. Put plainly: Screening with Tet-inducible ESET/SETDB1 cell line (dot blot analysis, FIG. 1). Format: cell-based. As to conditions: among 107 selected library compounds. The protocol:
In order to find compounds that inhibit the ESET/SETDB1 enzyme, 107 compounds expected to inhibit the activity of ESET/SETDB1 were selected through structural modeling from a compound library. These compounds were screened using a Tet-inducible ESET cell line.
Tet-Inducible ESET (H3K9 Specific Histone Methyltransferase) Cell Line (Tetracycline-Inducible ESET Cells):
A Tet-inducible ESET cell line was prepared using the T-REx™ system available from Invitrogen. The myc-ESET gene was subcloned into pcDNA5/TO and transfected into somatic mother cells (STHdh^Q7/7, striatal cells) using pcDNA6/TR.
Confocal Microscopy for Determination of H3K9me3 (Confocal Microscopy for Identification of Change in Heterochromatin Condensation by H3K9Me3 and Drug)
An indirect fluorescence labeling method using fluorescein-conjugated secondary antibodies was used. After fixing ESET inducible cells with 4% PFA and incubating with H3K9me3 (rabbit antibody; dilution, 1:200; Millipore) primary antibodies, the cells were incubated with fluorescence-conjugated secondary antibodies (Alexa 594; dilution, 1:400; Thermo). Images were obtained using a confocal microscope (IX2-DSU, Olympus, Tokyo, Japan).
Among those compounds, #7 compound was a quinolone derivative, which is selected as a hit-compound through the instant experiment. The #7 compound in FIG. 1 is Compound 8 in the present invention.

The target of another test is T1, ESET/SETDB1 enzyme (Homo sapiens, UniProt Q15047).
T1 construct: purchased BPS Bioscience
Put plainly: SETDB1 chemiluminescence enzyme assay (BPS Bioscience kit). Format: biochemical. To be noted: test compound 1-100 μM, FIG. 2. The protocol:
In order to investigate the inhibitory effect against the activity of the ESET/SETDB1 enzyme of the compounds according to the present disclosure, SETDB1 chemiluminescence assay was conducted for the compound 8. The SETDB1 assay was performed using the SetDB1 chemiluminescent assay kit (BPS Bioscience) according to the manufacturer's protocol. S-Adenosylmethionine (SAM, stock concentration 20 μM) was used as a […]. First, SAM and the test compounds were prepared to final concentrations of 1 μM, 3 μM, 10 μM, 30 μM and 100 μM by diluting with DMSO (final volume 1 μL). 150 μL of a TBST buffer (1X TBS, pH 8.0, containing 0.05% Tween-20) was added to each well of a 96-well plate and hydrated at room temperature for 15 minutes. A master mix containing an assay buffer, the compound 8 and the SETDB1 enzyme was prepared.
25 μL (7.5 μL 4×HMT buffer+2.5 μL 20 μM SAM+15 μL H2O) of the prepared master mix was added to each well of the plate. Then, 1 μL of the test compound (1 μM, 3 μM, 10 μM, 30 μM or 100 μM) and 20 μL of the diluted SetDB1 enzyme were added sequentially. […] Chemiluminescence resulting from the reaction between the HRP-conjugated secondary antibody and the added HRP substrate was measured using a chemiluminescence reader (Molecular Devices microplate reader) and the result was analyzed using the SoftMax Pro software.

The test system of test [1] is trimethylation of H3K9 (H3K9me3). Briefly: Change in H3K9 trimethylation in brain of YAC128 mouse. The class given is in vivo. To be noted: striatal brain tissue of YAC128 mouse, anti-H3K9me3 blot, FIGS. 4A and 4B. Here is the method: After adding the striatal brain tissue of YAC128 mouse to 1 mL of PBS containing 0.4 mM sodium butyrate, 5% Triton X-100, 3 mM DTT, 1 mM sodium orthovanadate, 5 mM sodium fluoride, 3 mM PMSF, 0.5 mg/mL leupeptin and 10 mg/mL aprotinin, a cell homogenate was obtained using a Downce crusher. After centrifugation at 3000 rpm for 10 minutes, the supernatant was removed. The precipitating cell pellet was washed twice with a 5% Triton buffer and histone was extracted with 0.2 M HCl. After neutralizing the histone-containing solution to neutral pH with 1 N NaOH, proteins were quantitated and separated by 15% SDS-PAGE. The change in trimethylation of H3K9 (H3K9me3) was investigated using anti-H3K9me3 (rabbit antibody; dilution, 1:1000; Millipore).

The subject of another test is transgenic YAC128 mouse. Briefly: Rotarod performance test in YAC128 animal model. The class given is in vivo. As to conditions: 15-month-old male YAC128 mice, 0.636 mg/kg for 3 weeks, 5 days a week, 5 rpm, compared to the vehicle, FIG. 3. Here is the method: The effect of the compound according to the present disclosure on motor ability was evaluated using the transgenic YAC128 mouse which expresses the human Huntingtin gene containing 128 CAG repeat sequences as a model of Huntington's disease (HD) (Menalled L et al., 2009, Neurobiol Dis 35(3):319-36). The Huntington's disease model mouse is reported to show decline in motor ability, which is the typical pathological symptom of Huntington's disease, from 6 around months after birth, progress of neurodegeneration from 9 months and aggregation of mutant Huntington's genes in striatal neurons from around 18 months.
Rotarod performance test was conducted using 15-month-old male YAC128 mice. The drug was administered (0.636 mg/kg) for 3 weeks, 5 days a week, and the rotarod test was performed on the 5th day of each week.
The mouse was placed on a rotating rod (4 cm in diameter) and riding time was measured. The experiment was performed 4 times on the same day and 60 seconds was given to each mouse. The rotarod rotation speed was set to 5 rpm. The period of time until the mouse fell to the ground was measured. When the mouse remained longer than 60 seconds on the rod, the riding time was recorded as 60 seconds. The recorded time was statistically analyzed and was used as an indicator of the motor ability and balance of the mouse.

Structures are written as SMILES.

Take `C=CCNc1cccc2nc(N3CCCCC3)ccc12` [Compound 4, 2-(piperidin-1-yl)-N-allylquinolin-5-amine]: the “inhibitory effect against ESET/SETDB1” value in the test on ESET/SETDB1 was “significant inhibitory effect”.

Regarding `C=CCOc1cccc2nc(N3CCCC3)ccc12` [Compound 8, 5-allyloxy-2-(pyrrolidin-1-yl)quinoline], on ESET/SETDB1 enzyme, the “trimethylation of H3K9 (H3K9me3)” value is “remarkably decreased”. The “intensity of trimethylated H3K9” value in test [1] was “remarkably decreased”. In the test with ESET/SETDB1, the “inhibitory effect against ESET/SETDB1” value is reported as “significant inhibitory effect”. Further, in the test on transgenic YAC128 mouse, the “riding time on the rod” value is listed as “remarkably increased”.

For `C=CCOc1cccc2nc(Nc3ccccc3)ccc12` [Compound 11, 5-allyloxy-N-phenylquinolin-2-amine], the “inhibitory effect against ESET/SETDB1” value with ESET/SETDB1 is recorded as “significant inhibitory effect”.
